The assay addresses T1, APJ (Homo sapiens, UniProt P35414).
T1 construct: expressed in transfected cells; host or cells: CHO cells (CHO-A10 clone)
T1 sequence (P35414 1-380): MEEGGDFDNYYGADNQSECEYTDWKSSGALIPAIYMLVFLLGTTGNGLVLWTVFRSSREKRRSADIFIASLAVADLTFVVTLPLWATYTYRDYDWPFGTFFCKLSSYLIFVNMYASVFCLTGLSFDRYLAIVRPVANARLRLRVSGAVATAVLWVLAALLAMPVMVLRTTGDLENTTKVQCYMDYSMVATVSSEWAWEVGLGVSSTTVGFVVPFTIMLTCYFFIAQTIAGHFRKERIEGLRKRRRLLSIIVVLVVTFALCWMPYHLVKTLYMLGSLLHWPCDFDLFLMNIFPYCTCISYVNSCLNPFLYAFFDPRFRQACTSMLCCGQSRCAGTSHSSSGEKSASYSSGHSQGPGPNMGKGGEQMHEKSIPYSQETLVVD
Kind of assay: Suppression activity on forskolin stimulated cAMP production. The format is cell-based. The following applies: suppression of cAMP production stimulated with 1 µM forskolin; CHO-A10 clone cells; 37°C for 30 minutes; cAMP EIA. The method, then:
Subsequently, after washing with 500 µl of the assay buffer once, 500 µl each of the sample dissolved in the assay buffer added with 1 µM of forskolin were put into each well to incubate at 37°C for 30 minutes. Wells incubated with assay buffer added with no forskolin were prepared to know the basic cAMP production of cells (basal level), and similarly, wells incubated with assay buffer added with forskolin were also prepared to know the maximum cAMP production with stimulation of foskolin (maximum level). After completion of incubation, each well was washed with 500 µl of the assay buffer once, added with 500 µl of the lysis buffer IB included in the cAMP EIA system (Amersham Pharmacia Biotech) and extraction of cAMP was carried out. Following the prescription for the kit, a portion of 100 µl each of the extracts was used to assay. The level of suppression activity on cAMP production was calculated by taking the difference between the maximum level and cAMP in the wells that was added with a sample (amount of the suppression of cAMP production), and by taking it as a percentage relative to the increased production (difference between maximum level and basal level) in cAMP associated with forskolin stimulation, and EC50 was determined based on the dose response curve.

Non-standard residues stand in square brackets, D forms with d. Residues, ends and D or L forms follow the SMILES beside them. No end group written: not given here. Phe(4-Cl) = N[C@@H](Cc1ccc(Cl)cc1)C(=O)O; Cha = N[C@@H](CC1CCCCC1)C(=O)O; Nle = CCCC[C@H](N)C(=O)O

In turn, `CCCC[C@H](NC(=O)[C@@H]1CCCN1C(=O)CNC(=O)[C@H](CCCCN)NC(=O)[C@H](Cc1c[nH]cn1)NC(=O)[C@H](CO)NC(=O)[C@H](CC(C)C)NC(=O)[C@H](CCCNC(=N)N)NC(=O)[C@@H]1CCCN1C(=O)[C@H](CCCNC(=N)N)NC(=O)[C@H](CCC(N)=O)NC(=O)[C@H](CCCNC(=N)N)NC(=O)[C@H](CCCNC(=N)N)NC(=O)[C@H](Cc1ccccc1)NC(=O)[C@H](CCCCN)NC(=O)[C@H](CCCNC(=N)N)NC(=O)[C@H](CCCNC(=N)N)NC(=O)CNC(=O)CNC(=O)[C@H](CCC(N)=O)NC(=O)[C@H](Cc1c[nH]c2ccccc12)NC(=O)[C@@H]1CCCN1C(=O)CNC(=O)[C@@H]1CCCN1C(=O)CNC(=O)[C@H](CC(N)=O)NC(=O)[C@H](CCCNC(=N)N)NC(=O)[C@H](CO)NC(=O)CNC(=O)[C@H](CCCNC(=N)N)NC(=O)[C@@H]1CCCN1C(=O)[C@H](CCC(N)=O)NC(=O)[C@@H](NC(=O)[C@@H](N)CC(C)C)C(C)C)C(=O)N1CCC[C@H]1C(=O)N[C@@H](Cc1ccc(O)cc1)C(=O)O` [Example 2] (H-LVQPRGSRNGPGPWQGGRRKFRRQRPRLSHKGP[Nle]PY-OH) showed an EC50 of 0.41 nM.
For `CSCC[C@H](NC(=O)[C@@H]1CCCN1C(=O)CNC(=O)[C@H](CCCCN)NC(=O)[C@H](Cc1c[nH]cn1)NC(=O)[C@H](CO)NC(=O)[C@H](CC(C)C)NC(=O)[C@H](CCCNC(=N)N)NC(=O)[C@@H]1CCCN1C(=O)[C@@H](N)CCCNC(=N)N)C(=O)N[C@@H](Cc1ccc2ccccc2c1)C(=O)O` [Example 31] the value was 0.3 nM; for `CSCC[C@H](NC(=O)[C@@H]1CCCN1C(=O)CNC(=O)[C@H](CCCCN)NC(=O)[C@H](Cc1c[nH]cn1)NC(=O)[C@H](CO)NC(=O)[C@H](CC(C)C)NC(=O)[C@H](CCCNC(=N)N)NC(=O)[C@@H]1CCCN1C(=O)[C@@H](N)CCCNC(=N)N)C(=O)N1CCC[C@H]1C(=O)N[C@@H](Cc1ccc2ccccc2c1)C(=O)O` [Example 30], 0.28 nM.
Molecule `CSCC[C@H](NC(=O)[C@@H]1CCCN1C(=O)CNC(=O)[C@H](CCCCN)NC(=O)[C@H](Cc1c[nH]cn1)NC(=O)[C@H](CO)NC(=O)[C@H](CC(C)C)NC(=O)[C@H](CCCNC(=N)N)NC(=O)[C@@H]1CCCN1C(=O)[C@@H](N)CCCNC(=N)N)C(=O)N[C@@H](Cc1ccc(Cl)cc1)C(=O)O` [Example 33] gave an EC50 of 0.1 nM.
Take `CC(C)C[C@H](NC(=O)[C@H](CCCNC(=N)N)NC(=O)[C@@H]1CCCN1C(=O)[C@H](CCCNC(=N)N)NC(=O)[C@@H]1CCC(=O)N1)C(=O)N[C@@H](CO)C(=O)N[C@@H](Cc1c[nH]cn1)C(=O)N[C@@H](CCCCN)C(=O)NCC(=O)N1CCC[C@H]1C(=O)N[C@@H](CC1CCCCC1)C(=O)N1CCC[C@H]1C(=O)N[C@@H](Cc1ccccc1)C(=O)O` [Example 35]: the EC50 stood at 0.34 nM.
“LVQPRGSRNGPGPWQGGRRKFRRQRPRLSHKGPMPF [reference compound]” showed an EC50 of 0.52 nM.
`CCCC[C@H](NC(=O)[C@@H]1CCCN1C(=O)CNC(=O)[C@H](CCCCN)NC(=O)[C@H](Cc1c[nH]cn1)NC(=O)[C@H](CO)NC(=O)[C@H](CC(C)C)NC(=O)[C@H](CCCNC(=N)N)NC(=O)[C@@H]1CCCN1C(=O)[C@H](CCCNC(=N)N)NC(=O)[C@@H]1CCC(=O)N1)C(=O)N1CCC[C@H]1C(=O)N[C@@H](Cc1ccc(O)cc1)C(=O)O` [Example 4] had an EC50 of 0.19 nM. This EC50 is about 2.7-fold lower than that of the molecule before.
For `CC(C)C[C@H](NC(=O)[C@H](CCCNC(=N)N)NC(=O)[C@@H]1CCCN1C(=O)[C@H](CCCNC(=N)N)NC(=O)[C@H](CCC(N)=O)NC(=O)[C@H](CCCNC(=N)N)NC(=O)[C@@H](N)CCCNC(=N)N)C(=O)N[C@@H](CO)C(=O)N[C@@H](Cc1c[nH]cn1)C(=O)N[C@@H](CCCCN)C(=O)NCC(=O)N1CCC[C@H]1C(=O)N[C@@H](CC1CCCCC1)C(=O)O` [Example 36] (H-RRQRPRLSHKGP[Cha]-OH) the value was 0.16 nM; for `CSCC[C@H](NC(=O)[C@@H]1CCCN1C(=O)CNC(=O)[C@H](CCCCN)NC(=O)[C@H](Cc1c[nH]cn1)NC(=O)[C@H](CO)NC(=O)[C@H](CC(C)C)NC(=O)[C@H](CCCNC(=N)N)NC(=O)[C@@H]1CCCN1C(=O)[C@@H](N)CCCNC(=N)N)C(=O)N1CCC[C@H]1C(=O)N[C@@H](Cc1ccc(Cl)cc1)C(=O)O` [Example 32], 0.2 nM; for `CSCC[C@H](NC(=O)[C@@H]1CCCN1C(=O)CNC(=O)[C@H](CCCCN)NC(=O)[C@H](Cc1c[nH]cn1)NC(=O)[C@H](CO)NC(=O)[C@H](CC(C)C)NC(=O)[C@H](CCCNC(=N)N)NC(=O)[C@@H]1CCCN1C(=O)[C@@H](N)CCCNC(=N)N)C(=O)N[C@@H](CC1CCCCC1)C(=O)O` [Example 34], 0.37 nM.
For `CCCC[C@H](NC(=O)[C@H](Cc1c[nH]cn1)NC(=O)[C@H](CO)NC(=O)[C@H](CC(C)C)NC(=O)[C@H](CCCNC(=N)N)NC(=O)[C@@H]1CCCN1C(=O)[C@H](CCCNC(=N)N)NC(=O)[C@H](CCC(N)=O)NC(=O)[C@H](CCCNC(=N)N)NC(=O)[C@@H](N)CCCNC(=N)N)C(=O)NCC(=O)N1CCC[C@H]1C(=O)N[C@@H](CCSC)C(=O)N1CCC[C@H]1C(=O)N[C@@H](Cc1ccc(Cl)cc1)C(=O)O` [Example 38] (H-RRQRPRLSH[Nle]GPMP[Phe(4-Cl)]-OH), the response was half-maximal at 0.35 nM (EC50).
The result for `CSCC[C@H](NC(=O)[C@@H]1CCCN1C(=O)CNC(=O)[C@H](CCCCN)NC(=O)[C@H](Cc1c[nH]cn1)NC(=O)[C@H](CO)NC(=O)[C@H](CC(C)C)NC(=O)[C@H](CCCNC(=N)N)NC(=O)[C@@H]1CCCN1C(=O)[C@H](CCCNC(=N)N)NC(=O)[C@H](CCC(N)=O)NC(=O)[C@H](CCCNC(=N)N)NC(=O)[C@@H](N)CCCNC(=N)N)C(=O)N1CCC[C@H]1C(=O)N[C@@H](Cc1ccc(Cl)cc1)C(=O)O` [Example 37] reads 0.14 nM.

The values are drawn from patent publication EP1116727B1, “PEPTIDE DERIVATIVE” (Takeda Chemical Industries, Ltd., priority 1998, dated 2000).
